Literature values in publication PMC9540525 (Cancer, 2022).

Tests used:
[1] = phase 1 dose-escalation study in R/R SCLC; cited from earlier work
[2] = phase 1 dose-escalation study in R/R SCLC; cited from earlier work; remark: listed apart in the source
[3] = first-in-human study; cited from earlier work

Compound | pharmacokinetic properties [1] | rate of AEs [2] | toxicities [3]
O=C(O)c1ccc(CN2CCC(CN[C@@H]3C[C@H]3c3ccccc3)CC2)cc1 [GSK2879552] | favorable pharmacokinetic properties were demonstrated | the rate of AEs, especially serious AEs, was high | 
N[C@H]1CC[C@H](N[C@@H]2C[C@H]2c2ccccc2)CC1 [iadademstat] |  |  | caused toxicities, including thrombocytopenia, anemia, and febrile neutropenia, as well as deaths possibly related to iadademstat
